The record followed here is PubChem BioAssay (NCI).

Among the test systems are LOX IMVI melanoma; NCI-H226 lung; ACHN renal; SF-268 CNS; IGROV1 ovarian; UO-31 renal; MOLT-4 leukemia; MALME-3M melanoma; SNB-75 CNS; M14 melanoma.
Holding throughout (assay): NCI tumour cell line growth inhibition, 48 h

SMILES strings stand for the structures.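 Cells were grown in 96-well plates and exposed to each compound for 48 hours at five concentrations; endpoints were interpolated linearly between bracketing concentrations, or set to the highest concentration if not reached. Abbreviation: GI50, concentration required for 50% inhibition of growth. TGI marks complete inhibition of growth.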

Consider `Cc1cc(O)ccc1O`, for which the GI50 in the assay on LOX IMVI melanoma was 13.7 µM; in the assay on NCI-H226 lung, 55.6 µM; in the assay with ACHN renal, 15.7 µM; in the assay on SF-268 CNS, 35.3 µM; in the assay with IGROV1 ovarian, 16.6 µM; in the assay on UO-31 renal, 13.4 µM. Further, the GI50 with MOLT-4 leukemia was 5.24 µM; with MALME-3M melanoma, 15.8 µM; with SNB-75 CNS, 24.1 µM. The TGI was 27.4 µM in the assay on LOX IMVI melanoma; > 100 µM with NCI-H226 lung; 29.1 µM with ACHN renal; > 100 µM with SF-268 CNS; 31 µM in the assay with IGROV1 ovarian; 26.2 µM in the assay with UO-31 renal. Moreover, the results for the TGI in the assay on MOLT-4 leukemia, with MALME-3M melanoma and in the assay on SNB-75 CNS were 37.7 µM, 31.1 µM and > 100 µM, respectively.

Turning to `Oc1ccccc1Nc1nc2ccccc2c2occc12`, the GI50 was 2.43 µM with LOX IMVI melanoma; 3.9 µM with ACHN renal; 8.74 µM with SF-268 CNS; 11.6 µM in the assay with M14 melanoma; 0.0614 µM with IGROV1 ovarian; 5.91 µM in the assay with UO-31 renal. For the same molecule, the TGI turned out to be 9.39 µM in the assay on LOX IMVI melanoma; 17 µM in the assay on ACHN renal; 28.6 µM with SF-268 CNS; 23.8 µM with M14 melanoma; 15.8 µM with IGROV1 ovarian; 19.6 µM with UO-31 renal.

Regarding `COc1ccc(/C(=N\O)c2cc(OC)c(OC)c(OC)c2)c(OC)c1N`, the GI50 is 5.38 µM in the assay with LOX IMVI melanoma; 46.6 µM in the assay on NCI-H226 lung; 7.68 µM in the assay on ACHN renal; 6.5 µM in the assay on SF-268 CNS; 2.98 µM in the assay with M14 melanoma; 6.83 µM in the assay on IGROV1 ovarian. Also, the GI50 was 8.14 µM with UO-31 renal, 3.95 µM with MOLT-4 leukemia and 8.5 µM in the assay with MALME-3M melanoma. The TGI in the assay on LOX IMVI melanoma, with NCI-H226 lung, with ACHN renal, in the assay on SF-268 CNS, in the assay on M14 melanoma and with IGROV1 ovarian was > 100 µM in each case. The TGI in the assay with UO-31 renal, in the assay on MOLT-4 leukemia and with MALME-3M melanoma was > 100 µM each time.

Regarding `Cc1cc(NS(=O)(=O)c2ccc(NC(=O)c3cccc4cc5ccccc5nc34)cc2)no1`, the TGI in the assay on ACHN renal is 29.8 µM; with SF-268 CNS, > 100 µM; in the assay on M14 melanoma it was 43 µM; in the assay on IGROV1 ovarian it was 64.8 µM; with UO-31 renal it was 19.2 µM; in the assay on MOLT-4 leukemia, 48.4 µM. Moreover, the TGI is 31.9 µM in the assay on MALME-3M melanoma and 41.9 µM in the assay with SNB-75 CNS.

In the case of `CC1C=CC(C)C2(O)C(=O)NC(O)C12` (stereo unspecified), the TGI in the assay with NCI-H226 lung, in the assay with ACHN renal, with SF-268 CNS, in the assay with M14 melanoma, in the assay on IGROV1 ovarian and in the assay on UO-31 renal was > 100 µM each time. Also, the TGI in the assay on MOLT-4 leukemia, in the assay on MALME-3M melanoma and in the assay with SNB-75 CNS was > 100 µM each time.

In the case of `O=C1Nc2ccccc2/C1=C/c1ccccc1`, the TGI was 27.6 µM in the assay on LOX IMVI melanoma; 37.4 µM with NCI-H226 lung; > 100 µM in the assay with ACHN renal; 35.1 µM with SF-268 CNS; 30.6 µM in the assay with M14 melanoma; 33.1 µM with IGROV1 ovarian. Moreover, the TGI in the assay with UO-31 renal was 25.3 µM; with MOLT-4 leukemia it was 57.5 µM; in the assay on SNB-75 CNS, 33.8 µM.

Take `COC(=O)c1oc2c(O)c(OC)c(Br)cc2c1C`: the GI50 was 23.5 µM in the assay with LOX IMVI melanoma; 29 µM in the assay with NCI-H226 lung; 20.2 µM with ACHN renal; 31 µM with SF-268 CNS; 22.6 µM in the assay with M14 melanoma; 32.7 µM in the assay on IGROV1 ovarian. The GI50 was 46.9 µM with UO-31 renal and 22.4 µM in the assay on MOLT-4 leukemia. For the same molecule, the TGI with LOX IMVI melanoma is 39.2 µM; with NCI-H226 lung, 50.2 µM; in the assay with ACHN renal it was 36.2 µM; with SF-268 CNS, > 100 µM; with M14 melanoma, 42.6 µM; with IGROV1 ovarian, 91.6 µM. Moreover, the results for the TGI in the assay on UO-31 renal and in the assay on MOLT-4 leukemia were > 100 µM and 43 µM, respectively.

`COc1cc(C(=O)/C=C/c2c(-c3ccc(F)cc3)nc3ncccn23)cc(OC)c1OC`: the GI50 in the assay on NCI-H226 lung is 3.08 µM; in the assay on ACHN renal, 2.21 µM; in the assay on SF-268 CNS it was 1.9 µM; with IGROV1 ovarian, 1.93 µM; with UO-31 renal it was 0.73 µM; with MOLT-4 leukemia, 3.75 µM. For the same molecule, the GI50 with MALME-3M melanoma is 2.84 µM; with SNB-75 CNS it was 2.39 µM. Moreover, the TGI in the assay with NCI-H226 lung is 18.9 µM; in the assay on ACHN renal, 6.45 µM; in the assay on SF-268 CNS it was 14.1 µM; in the assay with IGROV1 ovarian it was 9.53 µM; in the assay on UO-31 renal, > 100 µM; in the assay on MOLT-4 leukemia, > 100 µM. For the same molecule, the TGI worked out at 58 µM in the assay with MALME-3M melanoma and 9.37 µM in the assay on SNB-75 CNS.

Turning to `COc1cc2c(cc1OCCCCCn1c(-c3ccco3)nc3ccccc31)N=C[C@@H]1CCCN1C2=O`, the GI50 in the assay with NCI-H226 lung, with SF-268 CNS, in the assay on M14 melanoma, with IGROV1 ovarian, with MOLT-4 leukemia and in the assay on MALME-3M melanoma was < 0.01 µM throughout. In addition, the GI50 in the assay with SNB-75 CNS was < 0.01 µM. Moreover, the TGI in the assay on NCI-H226 lung is < 0.0136 µM; with M14 melanoma it was 0.0236 µM; in the assay on IGROV1 ovarian, 13.2 µM; with MALME-3M melanoma it was < 0.01 µM; with SNB-75 CNS, 0.0334 µM.

With `C=CCC12CC(=O)C=C1CCC1(C2)OCCO1` (stereo unspecified), the TGI in the assay on NCI-H226 lung, with ACHN renal, in the assay with SF-268 CNS, with M14 melanoma, in the assay with IGROV1 ovarian and in the assay with UO-31 renal was > 100 µM each time. The TGI in the assay on MOLT-4 leukemia, in the assay with MALME-3M melanoma and in the assay on SNB-75 CNS was > 100 µM throughout.

For the molecule `CCCCCCCCCCCCSC(=NC)NC`, the GI50 in the assay on ACHN renal is 1.73 µM; with SF-268 CNS, 3.82 µM; in the assay with IGROV1 ovarian, 2.52 µM; in the assay with UO-31 renal, 2.11 µM; in the assay on MOLT-4 leukemia, 2.01 µM; in the assay on MALME-3M melanoma, 2.04 µM. Further, the GI50 in the assay on SNB-75 CNS is 1.78 µM. The TGI was determined as 3.35 µM in the assay with ACHN renal; 22.5 µM in the assay on SF-268 CNS; 5.83 µM with IGROV1 ovarian; 5.64 µM in the assay with UO-31 renal; 5.05 µM with MOLT-4 leukemia; 3.97 µM in the assay on MALME-3M melanoma. For the same molecule, the TGI in the assay with SNB-75 CNS stood at 3.55 µM.
